Legend:
[1] = test system: HIV-1 strain 92HT599; test: Antiviral activity: p24 estimation in MT2 cells infected with HIV-1 strain 92HT599; assay type: cell-based; conditions: for IC50: Human immunodeficiency virus 1, HIV-1 92HT599, p24; for inhibition at 0.1 µM: Human immunodeficiency virus 1, 100 nM; for inhibition at 0.1 µM / inhibition at 1 µM: HIV-1 92HT599, p24, ~96 hours; for inhibition at 1 µM: Human immunodeficiency virus 1, 1000 nM
Protocol: MT2 cells were infected with HIV-1 strain 92HT599 (10 TCID 50/30000 cells). The infected cells were plated at the concentration of ˜30 000 cells per well in 96 well plate. Test compound was added to the micro plate in defined format with the final concentration of DMSO (vehicle) is not more than 1%. Incubation was carried out in CO2 incubator for ˜96 hours for viral infection. At the end of incubation period an aliquot from each well was taken for p24 estimation. The quantitation of p24 is an index for antiviral activity of the compound. Percent inhibition was calculated with reference to control values (vehicle controls). p-24 estimation was carried out using Advance biosciences kit as per the procedure detailed by supplier.

[2] = Single dose oral pharmacokinetic study; assay type: in vivo, mice; conditions: mouse, plasma
Protocol: The test item was administered through oral route to animals (rat/mice) at 30 mg/kg dose in a suitable vehicle at 10 ml/kg dose volume. Blood samples (˜50 uL at each time point) were collected from retro-orbital plexus using K3 EDTA as anticoagulant in eppendorf tubes at defined time intervals under light ether anesthesia. The samples were centrifuged at 3500×g to separate plasma and stored at −80° C. until analysis.
Sample analysis: Test samples were analyzed using LC-MS-MS after developing fit-for-purpose method for each of test compound.

[3] = Mice oral PK @30 mg/kg (Table 3)
[4] = Mice oral PK @30 mg/kg (Table 4)

| Compound | IC50 [1] [nM] | AUC(0-t) [2, 3] [µg·h/mL] | Cmax [2, 3] [ng/mL] | Tmax [2, 3] [h] | inhibition at 0.1 µM [1] [%] | inhibition at 1 µM [1] [%] | AUC(0-inf) [2, 4] [µg·h/mL] | AUC(0-t) [2, 4] [µg·h/mL] | Cmax [2, 4] [ng/mL] | half-life [2, 4] [h] |
| --- | --- | --- | --- | --- | --- | --- | --- | --- | --- | --- |
| C=C(C)[C@@H]1CC[C@]2(C(=O)N3CCC[C@@H]3c3nc(-c4ccccc4)no3)CC[C@]3(C)[C@H](CC[C@@H]4[C@@]5(C)CC[C@H](OC(=O)CC(C)(C)C(=O)O)C(C)(C)[C@@H]5CC[C@]43C)[C@@H]12 [Compound 1, 2,2-dimethyl-4-oxo-4-((1R,3aS,5aR,5bR,7aR,9S,11aR,11bR,13aR,13bR)-5a,5b,8,8,11a-pentamethyl-3a-((R)-2-(3-phenyl-1,2,4-oxadiazol-5-yl)pyrrolidine-1-carbonyl)-1-(prop-1-en-2-yl)icosahydro-1H-cyclopenta[a]chrysen-9-yloxy)butanoic acid] | 5.02 | 125 | 12700 | 6 | – | – | – | – | – | – |
| C=C(C)[C@@H]1CC[C@]2(C(=O)N3CCC[C@@H]3c3nc(-c4cccnc4)no3)CC[C@]3(C)[C@H](CC[C@@H]4[C@@]5(C)CC[C@H](OC(=O)CC(C)(C)CC(=O)O)C(C)(C)[C@@H]5CC[C@]43C)[C@@H]12 [Compound 4, 3,3-dimethyl-5-oxo-5-((1R,3aS,5aR,5bR,7aR,9S,11aR,11bR,13aR,13bR)-5a,5b,8,8,11a-pentamethyl-1-(prop-1-en-2-yl)-3a-((R)-2-(3-(pyridin-3-yl)-1,2,4-oxadiazol-5-yl)pyrrolidine-1-carbonyl)icosahydro-1H-cyclopenta[a]chrysen-9-yloxy)pentanoic acid] | 8.64 | 36.9 | 4830 | 2.5 | 84 | 96 | – | – | – | – |
| C=C(C)[C@@H]1CC[C@]2(C(=O)N3CCCC3c3ncc(-c4ccc(OC)cc4)[nH]3)CC[C@]3(C)[C@H](CC[C@@H]4[C@@]5(C)CC[C@H](OC(=O)[C@H]6C[C@@H](C(=O)O)C6(C)C)C(C)(C)[C@@H]5CC[C@]43C)[C@@H]12 (stereo partly shown) [Compound 15] | – | – | – | – | 98 | 97 | 446 | 286 | 11400 | 30.9 |
| C=C(C)[C@@H]1CC[C@]2(C(=O)N3CCC[C@H]3c3ncc(-c4ccc([N+](=O)[O-])cc4)[nH]3)CC[C@]3(C)[C@H](CC[C@@H]4[C@@]5(C)CC[C@H](OC(=O)[C@H]6C[C@@H](C(=O)O)C6(C)C)C(C)(C)[C@@H]5CC[C@]43C)[C@@H]12 [Compound 17] | – | – | – | – | 96 | 100 | – | – | – | – |
| C=C(C)[C@@H]1CC[C@]2(C(=O)N3CCCC3c3ncc(-c4ccc(C#N)cc4)[nH]3)CC[C@]3(C)[C@H](CC[C@@H]4[C@@]5(C)CC[C@H](OC(=O)[C@H]6C[C@@H](C(=O)O)C6(C)C)C(C)(C)[C@@H]5CC[C@]43C)[C@@H]12 (stereo partly shown) [Compound 19] | – | – | – | – | 86 | 100 | – | – | – | – |
| C=C(C)[C@@H]1CC[C@]2(C(=O)N3CCC[C@H]3c3ncc(-c4ccccc4)[nH]3)CC[C@]3(C)[C@H](CC[C@@H]4[C@@]5(C)CC[C@H](OC(=O)[C@@H]6C[C@H](C(=O)O)C6(C)C)C(C)(C)[C@@H]5CC[C@]43C)[C@@H]12 [Compound 27, (1S,3R)-2,2-dimethyl-3-((((1R,3aS,5aR,5bR,7aR,9S,11aR,11bR,13aR,13bR)-5a,5b,8,8,11a-pentamethyl-3a-((S)-2-(5-phenyl-1H-imidazol-2-yl)pyrrolidine-1-carbonyl)-1-(prop-1-en-2-yl)icosahydro-1H-cyclopenta[a]chrysen-9-yl)oxy)carbonyl)cyclobutane-1-carboxylic acid] | 11 | – | – | – | – | – | 535 | 231 | 10100 | 38.1 |
| CC(C)(CC(=O)O[C@H]1CC[C@]2(C)[C@H]3CC[C@@H]4[C@H]5[C@H](C6(C)CC6)CC[C@]5(C(=O)N5CCC[C@H]5c5ncc(-c6cccnc6)[nH]5)CC[C@@]4(C)[C@]3(C)CC[C@H]2C1(C)C)C(=O)O [Compound 30, 2,2-dimethyl-4-oxo-4-(((1R,3aS,5aR,5bR,7aR,9S,11aR,11bR,13aR,13bR)-5a,5b,8,8,11a-pentamethyl-1-(1-methylcyclopropyl)-3a-((S)-2-(5-(pyridin-3-yl)-1H-imidazol-2-yl)pyrrolidine-1-carbonyl)icosahydro-1H-cyclopenta[a]chrysen-9-yl)oxy)butanoic acid] | 3.83 | – | – | – | – | – | 57.8 | 54.6 | 6400 | 1.7 |
| CC(C)(CC(=O)O)CC(=O)O[C@H]1CC[C@]2(C)[C@H]3CC[C@@H]4[C@H]5[C@H](C6(C)CC6)CC[C@]5(C(=O)N5CCCC5c5ncc(-c6cccnc6)[nH]5)CC[C@@]4(C)[C@]3(C)CC[C@H]2C1(C)C (stereo partly shown) [Compound 31] | 1.62 | – | – | – | – | – | 145 | 136 | 9300 | 10.9 |
| CC1(C)C(C(=O)O)CC1C(=O)O[C@H]1CC[C@]2(C)[C@H]3CC[C@@H]4[C@H]5[C@H](C6(C)CC6)CC[C@]5(C(=O)N5CCC[C@H]5c5ncc(-c6cccnc6)[nH]5)CC[C@@]4(C)[C@]3(C)CC[C@H]2C1(C)C (stereo partly drawn) [Compound 32, 2,2-dimethyl-3-((((1R,3aS,5aR,5bR,7aR,9S,11aR,11bR,13aR,13bR)-5a,5b,8,8,11a-pentamethyl-1-(1-methylcyclopropyl)-3a-((S)-2-(5-(pyridin-3-yl)-1H-imidazol-2-yl)pyrrolidine-1-carbonyl)icosahydro-1H-cyclopenta[a]chrysen-9-yl)oxy)carbonyl)cyclobutane-1-carboxylic acid] | – | – | – | – | 100 | 100 | – | – | – | – |
| C=C(C)[C@@H]1CC[C@]2(C(=O)N3CCC[C@H]3c3ncc(-c4ccc(O)cc4)[nH]3)CC[C@]3(C)[C@H](CC[C@@H]4[C@@]5(C)CC[C@H](OC(=O)C6CC(C(=O)O)C6(C)C)C(C)(C)[C@@H]5CC[C@]43C)[C@@H]12 (stereo partly drawn) [Compound 36, 3-((((1R,3aS,5aR,5bR,7aR,9S,11aR,11bR,13aR,13bR)-3a-((S)-2-(5-(4-hydroxyphenyl)-1H-imidazol-2-yl)pyrrolidine-1-carbonyl)-5a,5b,8,8,11a-pentamethyl-1-(prop-1-en-2-yl)icosahydro-1H-cyclopenta[a]chrysen-9-yl)oxy)carbonyl)-2,2-dimethylcyclobutane-1-carboxylic acid] | – | – | – | – | – | – | 518 | 334 | 10900 | 30.3 |
| C=C(C)[C@@H]1CC[C@]2(C(=O)N3CCC[C@@H]3c3ncc(-c4ccccc4)[nH]3)CC[C@]3(C)[C@H](CC[C@@H]4[C@@]5(C)CC[C@H](OC(=O)C6CC(C(=O)O)C6(C)C)C(C)(C)[C@@H]5CC[C@]43C)[C@@H]12 (stereo partly drawn) [Compound 41, 2,2-dimethyl-3-((((1R,3aS,5aR,5bR,7aR,9S,11aR,11bR,13aR,13bR)-5a,5b,8,8,11a-pentamethyl-3a-((R)-2-(5-phenyl-1H-imidazol-2-yl)pyrrolidine-1-carbonyl)-1-(prop-1-en-2-yl)icosahydro-1H-cyclopenta[a]chrysen-9-yl)oxy)carbonyl)cyclobutane-1-carboxylic acid] | – | – | – | – | 98 | 99 | – | – | – | – |

Source: patent US9637516B2, “Betulinic acid proline derivatives as HIV inhibitors” (HETERO RESEARCH FOUNDATION, priority 2012, dated 2017)
